Results as given in ChEMBL document CHEMBL3352811, “Novel pyrazoline derivatives as bi-inhibitor of COX-2 and B-Raf in treating cervical carcinoma” (Bioorg Med Chem, 2014).

Tests used:
[1] = Inhibition of mouse B-Raf V600E mutant assessed as as reduction in human N-terminal His-tagged MEK1 phosphorylation pre-incubated with compound for 1 hr
HeLa = assay: Antiproliferative activity against human HeLa cells after 24 hrs by MTT assay; assay type: functional
[2] = Antiproliferative activity against human WM266.4 cells after 24 hrs by MTT assay; assay type: functional; conditions: WM 266-4, 24 h
[3] = molecular target: Prostaglandin G/H synthase 1 (Homo sapiens, UniProt P23219); assay: Inhibition of COX1 (unknown origin) by solid phase ELISA method
Homo sapiens = species: Homo sapiens; assay: Selectivity index, ratio of IC50 for COX1 (unknown origin) to IC50 for COX2 (unknown origin)
[4] = molecular target: T1, Prostaglandin G/H synthase 2 (Homo sapiens, UniProt P35354); assay: Inhibition of COX2 (unknown origin) by solid phase ELISA method
T1 sequence (P35354 whole entry): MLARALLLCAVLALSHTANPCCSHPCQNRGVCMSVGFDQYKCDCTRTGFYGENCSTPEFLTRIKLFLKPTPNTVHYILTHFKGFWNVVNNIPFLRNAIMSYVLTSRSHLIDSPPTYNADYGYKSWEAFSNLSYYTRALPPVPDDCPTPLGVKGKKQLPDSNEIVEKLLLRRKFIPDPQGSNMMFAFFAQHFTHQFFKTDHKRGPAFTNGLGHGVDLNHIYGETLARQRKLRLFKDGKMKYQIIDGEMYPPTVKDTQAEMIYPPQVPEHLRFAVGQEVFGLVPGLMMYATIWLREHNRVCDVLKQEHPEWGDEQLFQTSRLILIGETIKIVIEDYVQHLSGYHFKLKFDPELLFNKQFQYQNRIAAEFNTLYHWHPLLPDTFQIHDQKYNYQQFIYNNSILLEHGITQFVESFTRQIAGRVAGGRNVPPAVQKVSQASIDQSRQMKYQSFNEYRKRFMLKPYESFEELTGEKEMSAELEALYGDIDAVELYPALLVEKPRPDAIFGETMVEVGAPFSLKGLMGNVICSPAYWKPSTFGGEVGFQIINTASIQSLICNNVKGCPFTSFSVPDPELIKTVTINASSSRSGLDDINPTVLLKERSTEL

Chain of Prostaglandin G/H synthase 1 (P23219 whole entry): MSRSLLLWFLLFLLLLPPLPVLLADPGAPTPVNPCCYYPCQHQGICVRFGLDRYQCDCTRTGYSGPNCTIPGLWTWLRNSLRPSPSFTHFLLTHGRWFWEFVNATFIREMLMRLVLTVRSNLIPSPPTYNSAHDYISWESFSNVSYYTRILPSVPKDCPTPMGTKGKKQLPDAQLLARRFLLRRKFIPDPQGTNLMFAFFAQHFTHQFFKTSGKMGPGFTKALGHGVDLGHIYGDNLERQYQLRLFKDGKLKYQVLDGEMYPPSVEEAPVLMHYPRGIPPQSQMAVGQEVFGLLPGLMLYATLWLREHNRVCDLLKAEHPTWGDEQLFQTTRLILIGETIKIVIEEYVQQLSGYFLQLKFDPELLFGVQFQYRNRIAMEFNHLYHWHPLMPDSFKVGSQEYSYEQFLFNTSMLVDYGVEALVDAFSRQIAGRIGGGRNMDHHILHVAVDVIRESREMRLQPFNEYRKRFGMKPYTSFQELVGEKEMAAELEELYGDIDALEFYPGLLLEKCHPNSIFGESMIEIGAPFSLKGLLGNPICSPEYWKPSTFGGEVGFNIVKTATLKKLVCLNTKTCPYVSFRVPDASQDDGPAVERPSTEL

Structure (SMILES) | IC50 [1] [µM] | GI50 (HeLa) [µM] | GI50 [2] [µM] | IC50 [3] [µM] | Ratio IC50 (Homo sapiens) | IC50 [4] [µM]
CCCS(=O)(=O)Nc1ccc(F)c(C(=O)c2c[nH]c3ncc(-c4ccc(Cl)cc4)cc23)c1F [VEMURAFENIB] | 0.06 | – | – | – | – | –
NS(=O)(=O)c1ccc(N2N=C(C(F)(F)F)CC2c2cccc3ccccc23)cc1 (stereo not given) | 8.23 | 29.5 | 8.91 | 17 | – | –
O=S(=O)(c1ccccc1)N1N=C(C(F)(F)F)CC1c1cccc2ccccc12 (stereo not given) | 1.24 | > 500 | 1.18 | 17.6 | 0.26 | –
CS(=O)(=O)c1ccc(N2N=C(C(F)(F)F)CC2c2ccc3c(c2)OCCO3)cc1 (stereo not given) | 0.89 | 23.5 | 1.12 | 64.9 | 270 | –
NS(=O)(=O)c1ccc(N2N=C(C(F)(F)F)CC2c2ccc3c(c2)OCCO3)cc1 (stereo not given) | 17 | 19.9 | 132 | 41.5 | > 500 | –
CS(=O)(=O)c1ccc(N2N=C(C(F)(F)F)CC2c2cccc3ccccc23)cc1 (stereo not given) | 8.53 | 33.3 | 10.6 | 15.2 | – | –
O=S(=O)(c1ccccc1)N1N=C(C(F)(F)F)CC1c1ccc2c(c1)OCO2 (stereo not given) | 2.41 | 34.6 | 1.63 | 14.1 | 2.5 | –
NS(=O)(=O)c1ccc(N2N=C(C(F)(F)F)CC2c2ccc3ccccc3c2)cc1 (stereo not given) | 1.15 | 49.8 | 1.09 | 19 | 1.3 | –
CS(=O)(=O)c1ccc(N2N=C(C(F)(F)F)CC2c2cccc3c2OCCO3)cc1 (stereo not given) | 0.12 | 26 | 0.76 | 40.6 | – | –
Cc1ccc(S(=O)(=O)N2N=C(C(F)(F)F)CC2c2ccc3c(c2)OCO3)cc1 (stereo not given) | 2.26 | 28.7 | 1.63 | 3.72 | 7 | –
CS(=O)(=O)c1ccc(N2N=C(C(F)(F)F)CC2c2ccc3c(c2)OCO3)cc1 (stereo not given) | 0.49 | 27.6 | 0.89 | 57.5 | 411 | –
Cc1ccc(S(=O)(=O)N2N=C(C(F)(F)F)CC2c2cccc3c2OCO3)cc1 (stereo not given) | 1.11 | > 500 | 1.08 | 10.4 | – | –
O=S(=O)(c1ccccc1)N1N=C(C(F)(F)F)CC1c1cccc2c1OCO2 (stereo not given) | 9.46 | > 500 | 13.6 | 8.75 | 0.14 | –
Cc1ccc(S(=O)(=O)N2N=C(C(F)(F)F)CC2c2cccc3c2OCCO3)cc1 (stereo not given) | 1.74 | > 500 | 1.34 | 15.4 | 0.01 | > 500
NS(=O)(=O)c1ccc(N2N=C(C(F)(F)F)CC2c2ccc3c(c2)OCO3)cc1 (stereo not given) | 3.84 | – | 2.47 | 19 | > 500 | –
CS(=O)(=O)c1ccc(N2N=C(C(F)(F)F)CC2c2cccc3c2OCO3)cc1 (stereo not given) | 9.86 | 38.6 | 16.8 | 10.8 | 269 | –
Cc1ccc(S(=O)(=O)N2N=C(C(F)(F)F)CC2c2cccc3ccccc23)cc1 (stereo not given) | 1.01 | > 500 | 1.06 | 153 | 1.7 | –
O=S(=O)(c1ccccc1)N1N=C(C(F)(F)F)CC1c1ccc2ccccc2c1 (stereo not given) | > 100 | > 500 | > 500 | 7.23 | 0.04 | 174
O=S(=O)(c1ccccc1)N1N=C(C(F)(F)F)CC1c1cccc2c1OCCO2 (stereo not given) | 5.24 | 127 | 3.87 | 100 | 3.7 | –
CS(=O)(=O)c1ccc(N2N=C(C(F)(F)F)CC2c2ccc3ccccc3c2)cc1 (stereo not given) | 0.67 | 63.6 | 0.97 | 38.7 | 2.2 | –
Cc1ccc(S(=O)(=O)N2N=C(C(F)(F)F)CC2c2ccc3c(c2)OCCO3)cc1 (stereo not given) | 0.25 | 24.8 | 0.83 | 4.63 | 3.5 | –
NS(=O)(=O)c1ccc(N2N=C(C(F)(F)F)CC2c2cccc3c2OCCO3)cc1 (stereo not given) | 0.15 | 26 | 0.82 | 34.5 | > 500 | –
O=S(=O)(c1ccccc1)N1N=C(C(F)(F)F)CC1c1ccc2c(c1)OCCO2 (stereo not given) | > 100 | 58.9 | > 500 | 106 | 54 | –
Cc1ccc(S(=O)(=O)N2N=C(C(F)(F)F)CC2c2ccc3ccccc3c2)cc1 (stereo not given) | 0.85 | > 500 | 1.01 | > 500 | 10.7 | –
O=c1[nH]cc(F)c(=O)[nH]1 [FLUOROURACIL] | – | 30.2 | 28.8 | – | – | –
NS(=O)(=O)c1ccc(N2N=C(C(F)(F)F)CC2c2cccc3c2OCO3)cc1 (stereo not given) | 1.77 | 26.2 | 1.32 | 10 | 197 | –
